Biological target: T1, M1 family aminopeptidase (Plasmodium falciparum (isolate FcB1 / Columbia), UniProt O96935)
T1 sequence (O96935 whole entry): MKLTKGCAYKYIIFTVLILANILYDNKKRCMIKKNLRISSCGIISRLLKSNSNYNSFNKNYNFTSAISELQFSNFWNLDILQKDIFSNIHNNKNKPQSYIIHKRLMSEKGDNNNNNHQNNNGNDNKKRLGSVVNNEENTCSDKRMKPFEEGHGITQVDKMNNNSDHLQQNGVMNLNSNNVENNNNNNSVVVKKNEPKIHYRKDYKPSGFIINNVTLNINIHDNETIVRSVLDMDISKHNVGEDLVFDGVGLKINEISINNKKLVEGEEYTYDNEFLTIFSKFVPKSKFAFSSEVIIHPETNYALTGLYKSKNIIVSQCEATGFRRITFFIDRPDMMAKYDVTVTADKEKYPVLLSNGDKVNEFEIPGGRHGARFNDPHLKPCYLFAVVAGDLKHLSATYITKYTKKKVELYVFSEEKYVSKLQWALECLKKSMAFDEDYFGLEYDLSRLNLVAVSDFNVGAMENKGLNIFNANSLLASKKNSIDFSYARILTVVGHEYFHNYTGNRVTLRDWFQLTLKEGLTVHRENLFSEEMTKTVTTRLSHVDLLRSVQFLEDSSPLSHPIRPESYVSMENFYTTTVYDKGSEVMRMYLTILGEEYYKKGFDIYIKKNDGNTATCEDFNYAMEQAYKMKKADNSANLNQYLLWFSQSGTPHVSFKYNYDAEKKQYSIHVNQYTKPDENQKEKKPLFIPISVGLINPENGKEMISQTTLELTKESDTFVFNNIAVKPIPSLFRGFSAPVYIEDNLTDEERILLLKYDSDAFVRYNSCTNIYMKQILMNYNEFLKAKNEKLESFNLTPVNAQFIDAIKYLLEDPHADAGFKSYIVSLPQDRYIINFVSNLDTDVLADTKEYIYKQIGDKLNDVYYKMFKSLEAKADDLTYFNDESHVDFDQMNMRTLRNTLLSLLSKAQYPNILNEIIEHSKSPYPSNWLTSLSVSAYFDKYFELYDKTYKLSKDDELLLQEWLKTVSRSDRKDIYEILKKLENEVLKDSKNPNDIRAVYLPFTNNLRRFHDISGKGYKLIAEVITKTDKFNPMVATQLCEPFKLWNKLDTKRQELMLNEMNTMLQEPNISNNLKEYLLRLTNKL
Assay: P. falciparum M1AAP inhibitors, biochemical, fluorogenic H-Leu-NHMec substrate, 1536-well (AID 1445)

Row | Structure (SMILES) | IC50
1 | COC(=O)CN1C(=O)C2(c3ccccc31)c1c(-c3cccs3)n[nH]c1OC(=N)C2C#N (stereo not given) [methyl (6'-amino-5'-cyano-2-oxo-3'-thien-2-yl-1'H-spiro[indole-3,4'-pyrano[2,3-c]pyrazol]-1(2H)-yl)acetate] | 36.7 µM
2 | COc1ccccc1-c1nnc(SCC(=O)C(C#N)c2nc3ccccc3[nH]2)n1C1CCCCC1 (stereo not given) [SMR000067321] | 52.2 µM
3 | C#CCOCCOCCOCCNc1nc(N2CCN(C(=O)[C@H](Cc3cc4ccccc4[nH]3)n3cc([C@@H](N)C(C)CC)nn3)CC2)nc(N2CCN(C(=O)[C@H](Cc3cc4ccccc4[nH]3)n3cc([C@@H](N)CC(C)C)nn3)CC2)n1 (stereo not given in full) [SMR000391064] | 54.6 µM
4 | COC1=CC(/C=C(\C#N)c2nc3ccc(C)cc3[nH]2)C=C([N+](=O)[O-])C1=O (stereo not given) [(2Z,3E)-3-(3-methoxy-5-nitro-4-oxocyclohexa-2,5-dien-1-ylidene)-2-(5-methyl-1,3-dihydrobenzimidazol-2-ylidene)propanenitrile] | 16.2 µM
5 | Nc1nnc(CC(=O)N/N=C/C2C=C([N+](=O)[O-])C=C(Br)C2=O)s1 (stereo not given) [2-(5-azanyl-1,3,4-thiadiazol-2-yl)-N'-[(E)-(5-bromanyl-3-nitro-6-oxidanylidene-cyclohexa-2,4-dien-1-ylidene)methyl]ethanehydrazide] | 30 µM
6 | O=C1C([N+](=O)[O-])=CC=CC1/C=N/NC(=O)C1COc2ccccc2O1 (stereo not given) [N'-[(E)-(5-nitro-6-oxo-1-cyclohexa-2,4-dienylidene)methyl]-2,3-dihydro-1,4-benzodioxin-3-carbohydrazide] | 31.4 µM
7 | N#CC(C(=O)CSc1nnc(Cc2cccs2)n1C1CCCCC1)c1nc2ccccc2[nH]1 (stereo not given) [MLS000098387] | 78.9 µM
8 | Cc1c(N2C(=O)C(=O)C(C(=O)c3ccc(Cl)cc3)C2c2ccccc2)c(=O)n(-c2ccccc2)n1C (stereo not given) [MLS000331609] | 62.1 µM
9 | C#CCOCCOCCOCCNc1nc(N2CCN(C(=O)C(Cc3cc4ccccc4[nH]3)n3cc(C(N)C(C)CC)nn3)CC2)nc(N2CCN(C(=O)C(Cc3cc4ccccc4[nH]3)n3cc(C(N)C(C)CC)nn3)CC2)n1 (stereo not given) [SMR000391068] | 72 µM
10 | CCCCCCC(=O)N(O)c1cc(O)n(-c2ccccc2)c1O [SMR000043985] | 66.5 µM
11 | CCOc1ccc(-n2c(O)c(CN=Nc3nnc(C)c(=O)[nH]3)c3ccccc3c2=O)cc1 | 20.9 µM
12 | Cc1ccc(-c2csc(-n3[nH]c(C)c(N=Nc4ccccc4O)c3=O)n2)cc1 | 3.37 µM
13 | CC(NNC(=O)c1cc2ccccc2cc1O)=C1C(=O)c2ccccc2C1=O [N-[1-[1,3-bis(oxidanylidene)inden-2-yl]ethylideneamino]-3-oxidanyl-naphthalene-2-carboxamide] | 12 µM
14 | O=C1NC(=O)C(N=Nc2cc([N+](=O)[O-])ccc2O)C(=O)N1 | 11.4 µM
15 | Clc1ccc(CN=Nc2nnn[nH]2)cc1 | 92.8 µM
16 | CC(NNC(=O)c1cccc(Cl)c1)=C1C(=O)c2ccccc2C1=O | 40.8 µM
17 | CCOc1cc(CN=Nc2nc(O)c(CC(=O)O)s2)ccc1OS(=O)(=O)c1ccc(C)cc1 [{2-[(3-ethoxy-4-{[(4-methylphenyl)sulfonyl]oxy}benzylidene)hydrazono]-4-oxo-1,3-thiazolidin-5-yl}acetic acid] | 47.8 µM
18 | COC(=O)c1ccc(COc2ccccc2CN=Nc2cccc(C(=O)O)c2)cc1 [MLS000775447] | 47 µM

Row | Structure (SMILES) | IC50
19 | CC(=O)N1N=C(C2C(=O)N(C)C(=O)N(C)C2=O)CC1c1ccccc1 (stereo not given) [5-(1-acetyl-5-phenylpyrazolidin-3-ylidene)-1,3-dimethyl-1,3-diazinane-2,4,6-trione] | 16 µM
20 | CCOc1cc(C2C3=C(CCCC3=O)N=C3CCCC(=O)C32)cc(Cl)c1O (stereo not given) [9-(3-Chloro-5-ethoxy-4-hydroxy-phenyl)-3,4,6,7,9,10-hexahydro-2H,5H-acridine-1,8-dione] | 23.9 µM
21 | Oc1ccc(O)n1-c1nc2n(n1)C(c1ccccc1)CC(c1ccc(Br)cc1)=N2 (stereo not given) [MLS000037189] | 69.7 µM
22 | O=C1N=c2ccc(Br)cc2=C1NNc1nnn[nH]1 [5-bromanyl-3-[2-(2H-1,2,3,4-tetrazol-5-yl)hydrazinyl]indol-2-one] | 26.5 µM
23 | CCOC(=O)C1C(=O)C(=Cc2ccc(OCC(=O)O)c(OCC)c2)SC1=Nc1ccccc1 (stereo not given) [2-[4-[(Z)-(5-anilino-4-ethoxycarbonyl-3-oxo-2-thiophenylidene)methyl]-2-ethoxyphenoxy]acetic acid] | 60.2 µM
24 | O=C(O)c1cccc(-c2ccc(CN=Nc3ccc([N+](=O)[O-])cc3)o2)c1 [MLS000777078] | 27.3 µM
25 | O=C1Nc2ccccc2SC1C=NCc1ccccc1Cl (stereo not given) [2-{[(2-chlorobenzyl)amino]methylene}-2H-1,4-benzothiazin-3(4H)-one] | 5.63 µM
26 | CCOC1=CC(/C=N/NC(=O)c2cccs2)C=C([N+](=O)[O-])C1=O (stereo not given) [MLS000698505] | 103 µM
27 | CC(N=Nc1nc(C(=O)O)cs1)c1ccccc1 (stereo not given) [2-[2-(1-phenylethylidene)hydrazinyl]-4-thiazolecarboxylic acid] | 34.2 µM
28 | CCN1C(=O)/C(=N\NC(=O)c2cccs2)c2ccccc21 [MLS000760154] | 70.2 µM
29 | O=C(O)c1cccc(NC(=S)NN=Cc2ccccc2OCc2cccc(Br)c2)c1 [SMR000312741] | 109 µM
30 | CC(=O)Nc1ccc(S(=O)(=O)Oc2cccc(CN=Nc3nc(O)c(CC(=O)O)s3)c2)cc1 [(2-{[3-({[4-(acetylamino)phenyl]sulfonyl}oxy)benzylidene]hydrazono}-4-oxo-1,3-thiazolidin-5-yl)acetic acid] | 52.8 µM
31 | N#C/C(=C\C1C=CC(=O)C([N+](=O)[O-])=C1)c1nc2ccccc2s1 (stereo not given) | 33.9 µM
32 | CCOC(=O)C(C=NC(N)=Nc1nc2ccccc2o1)C(=O)OCC [2-[[[amino-(1,3-benzoxazol-2-ylamino)methylidene]amino]methylidene]propanedioic acid diethyl ester] | 79.2 µM
33 | O=C(O)c1cc(-c2ccc(CN=Nc3ccc([N+](=O)[O-])cn3)o2)ccc1Cl [2-chloro-5-[5-[[(5-nitropyridin-2-yl)hydrazinylidene]methyl]furan-2-yl]benzoic acid] | 12.7 µM
34 | CCC(=O)N1N=C(C2C(=O)N(C)C(=O)N(C)C2=O)CC1c1ccccc1 (stereo not given) | 41.9 µM
35 | COc1ccc(OC)c(C2C(C(=O)Nc3cccnc3)=C(C)N=C3CCCC(=O)C32)c1 (stereo not given) [4-(2,5-dimethoxyphenyl)-2-methyl-5-oxo-N-3-pyridinyl-1,4,5,6,7,8-hexahydro-3-quinolinecarboxamide] | 52.9 µM
